What all share (assay): NCI anticancer screen, dose series, 48 h
In test [1] the test system is UACC-62 melanoma.
The subject of test [2] is MDA-MB-435.
Test [3] has as its system HT29 colon.
The subject of test [4] is HS 578T breast.
Test [5] has as its system A498 renal.
Test [6] has as its system UO-31 renal.
Test [7] has as its system HOP-62 NSCLC.
For test [8], the system named is NCI/ADR-RES ovarian.
Test [9] has as its system SN12C renal.
For test [10], the system named is U251 CNS.

Each structure is given as a SMILES string.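 How tested: cells in 96-well plates exposed to compound for 48 hours at five concentrations. GI50 = concentration required for 50% inhibition of growth. At the TGI there is no net growth.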 Some results are limits rather than exact numbers.

As to `O=S(=O)(c1ccc(Cl)cc1)C(Cl)(Cl)Cl`, the GI50 in [1] was 4.75 µM; in test [2] it was 0.908 µM; in [3], 2.85 µM; in test [4], 2.27 µM; in test [5], 1.15 µM; in [6], 0.298 µM. The GI50 in test [7] was 8.12 µM; in test [8], 1.57 µM; in test [9] it was 3.54 µM; in [10], 3.96 µM. In addition, the TGI in test [1] turned out to be 25 µM; in [2] it was 4.7 µM; in test [3], 22.5 µM; in [4], 29.2 µM; in test [5], 13 µM; in [6], 11.5 µM. Further, the TGI is > 49.5 µM in [7], > 24.5 µM in [8], 30.3 µM in test [9] and 21.1 µM in test [10].
Regarding `CO/N=C(\COc1ccc2c(c1)[nH]c1ccccc12)c1ccc(F)cc1`, the GI50 was 95.9 µM in [1]; > 100 µM in test [2]; > 100 µM in [3]; 23.4 µM in test [4]; > 100 µM in [6]; 6.44 µM in test [7]. The GI50 is 51.8 µM in test [8], > 100 µM in test [9] and 25.4 µM in test [10]. For the same molecule, the TGI in test [1] was > 100 µM; in test [2], > 100 µM; in test [3] it was > 100 µM; in test [4], > 100 µM; in test [6], > 100 µM; in test [7], 26.7 µM. Besides, the TGI in test [8], in [9] and in test [10] was > 100 µM each time.
Consider `COc1cc2c3c(n(C)c(=O)c2cc1OC)-c1cc2c(cc1/C3=C\CCCCN1C(=O)c3ccccc3C1=O)OCO2`, for which the GI50 is 6.01 µM in test [1]; > 100 µM in test [2]; 18 µM in test [3]; 26.5 µM in test [4]; 2.79 µM in test [5]; 17.4 µM in test [7]. In addition, the GI50 in test [8] was 24.1 µM; in test [10], 10.6 µM. Moreover, the TGI is 37.6 µM in test [1]; > 100 µM in test [2]; > 100 µM in [3]; > 100 µM in test [4]; 37.1 µM in test [5]; 70.4 µM in test [7]. Moreover, the TGI in [8] was > 100 µM; in test [10], 25.8 µM.
On to `COc1ccc2c(c1)N(CCO)C1=C(C(=O)OC1)C2c1cccc(F)c1` (stereo not drawn), for which the GI50 in test [1] was 0.203 µM; in test [2], 0.112 µM; in test [3], 0.23 µM; in test [4], 0.511 µM; in test [5], 0.157 µM; in [6], 0.413 µM. Further, the GI50 is 0.297 µM in [8], 0.776 µM in test [9] and 0.65 µM in [10]. Further, the TGI in [1] is > 50 µM; in [2], 0.348 µM; in test [3], > 19.8 µM; in [4], > 50 µM; in [5], 2.12 µM; in test [6], > 50 µM. Also, the TGI was > 50 µM in test [7], > 21.4 µM in test [8], > 50 µM in [9] and > 50 µM in test [10].
In the case of `CCc1ccc2c(c1)N(CCO)C1=C(C(=O)OC1)C2c1cccc(Br)c1` (stereo not drawn), the GI50 in test [1] is 0.518 µM; in test [2], 0.0979 µM; in [3], 0.342 µM; in test [4] it was 0.468 µM; in test [5] it was 0.373 µM; in [6], 1.05 µM. For the same molecule, the GI50 is 0.462 µM in [7], 0.278 µM in [8], 1.35 µM in test [9] and 0.494 µM in [10]. The TGI in [1] was found to be 16.7 µM; in test [2], 0.521 µM; in [3], 4.36 µM; in [4] it was 20.9 µM; in [5], 8.84 µM; in test [6] it was 18.1 µM. Also, the TGI in test [7] was found to be 14.5 µM; in test [8] it was 2.21 µM; in test [9], 18.9 µM; in test [10], 14.5 µM.
As for `Fc1ccc(/C=N/n2c(-c3ccc(F)c(Cl)c3)nn(CNc3ccccc3C(F)(F)F)c2=S)cc1`, the GI50 in [1] is 39.2 µM; in [2], 43.1 µM; in [3], 94.4 µM; in test [4] it was 45.2 µM; in [5], 12.5 µM; in [6], 34.8 µM. Also, the GI50 in [7] was > 100 µM; in test [8], 41.2 µM; in test [9] it was 39.3 µM; in test [10] it was 69.1 µM. The TGI was > 100 µM in [1]; > 100 µM in test [2]; > 100 µM in [3]; > 100 µM in test [4]; 63.7 µM in test [5]; > 100 µM in test [6]. Moreover, the TGI in test [7], in test [8], in test [9] and in test [10] was > 100 µM throughout.
For the molecule `OCC1OC(n2cnc3c(N/N=C\c4ccccn4)ncnc32)C(O)C1O` (stereo not drawn), the GI50 in [1] is 0.866 µM; in test [2], 0.43 µM; in test [3] it was 0.417 µM; in test [4], 1.78 µM; in test [5], 0.762 µM; in test [6] it was 0.235 µM. Moreover, the GI50 in test [7] is 0.289 µM; in test [8], 0.185 µM; in test [9] it was 0.107 µM; in [10], 0.4 µM. Besides, the TGI in [1] was 4.05 µM; in [2], > 100 µM; in test [3] it was > 100 µM; in test [4], > 51.4 µM; in [5], > 100 µM; in [6] it was 1.44 µM. The TGI in [7] was 2.14 µM; in [8] it was 11.7 µM; in [9] it was 7.48 µM; in test [10], > 100 µM.

Source of the values: PubChem BioAssay (NCI).
